Data as given in PubChem BioAssay (NCI).
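Exposure lasted 48 hours, with cells grown in 96-well plates and compounds tested at five concentrations. GI50 marks 50% less growth. TGI is the concentration that stops growth completely.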

Columns and labels:
Experiment in all cases: DTP human tumour cell line panel, 48 h
SK-MEL-28 melanoma = test system: SK-MEL-28 melanoma
SNB-75 CNS = test system: SNB-75 CNS
RPMI-8226 leukemia = test system: RPMI-8226 leukemia
OVCAR-3 ovarian = test system: OVCAR-3 ovarian
HCC-2998 colon = test system: HCC-2998 colon
KM20L2 colon = test system: KM20L2 colon
IGROV1 ovarian = test system: IGROV1 ovarian
UO-31 renal = test system: UO-31 renal
SW-620 colon = test system: SW-620 colon
M19-MEL melanoma = test system: M19-MEL melanoma
UACC-257 melanoma = test system: UACC-257 melanoma

| SMILES | TGI (SK-MEL-28 melanoma) | TGI (SNB-75 CNS) | TGI (RPMI-8226 leukemia) | TGI (OVCAR-3 ovarian) | TGI (HCC-2998 colon) | TGI (KM20L2 colon) | TGI (IGROV1 ovarian) | TGI (UO-31 renal) | TGI (SW-620 colon) | TGI (M19-MEL melanoma) | TGI (UACC-257 melanoma) | GI50 (SK-MEL-28 melanoma) | GI50 (SNB-75 CNS) | GI50 (RPMI-8226 leukemia) | GI50 (OVCAR-3 ovarian) | GI50 (HCC-2998 colon) | GI50 (UACC-257 melanoma) | GI50 (IGROV1 ovarian) | GI50 (UO-31 renal) | GI50 (SW-620 colon) |
| --- | --- | --- | --- | --- | --- | --- | --- | --- | --- | --- | --- | --- | --- | --- | --- | --- | --- | --- | --- | --- |
| Oc1ccc(O)c(-n2cccn2)c1-n1cccn1 | > 100 µM | > 100 µM | > 100 µM | > 100 µM | > 100 µM | > 100 µM | > 100 µM | > 100 µM | > 100 µM | > 100 µM | – | – | – | – | – | – | – | – | – | – |
| C=CCO[C@H]1CC[C@@]2(C)C(CC[C@]3(C)C2CC=C2[C@@H]4[C@@H](C)C(C)CC[C@]4(C(=O)O)CCC23C)C1(C)C (stereo partly specified) | 29.5 µM | 30.2 µM | – | 29.8 µM | 32.4 µM | 33.2 µM | 33.9 µM | 31.2 µM | 35.4 µM | 35.7 µM | 32.3 µM | – | – | – | – | – | – | – | – | – |
| CC(CC(=O)Nc1ccc(NC(=O)CC(C)N=NC(N)=O)cc1)N=NC(N)=O (stereo unspecified) | > 100 µM | > 100 µM | > 100 µM | > 100 µM | > 100 µM | > 100 µM | > 100 µM | > 100 µM | – | > 100 µM | > 100 µM | – | – | – | – | – | – | – | – | – |
| COC(=O)C(=O)C(C#N)c1c(Cl)cccc1Cl (stereo unspecified) | > 100 µM | > 100 µM | > 100 µM | > 100 µM | – | > 100 µM | > 100 µM | > 100 µM | > 100 µM | > 100 µM | > 100 µM | – | – | – | – | – | – | – | – | – |
| C/C(=N\Nc1n[nH]c(=S)n1N)c1c(O)cc(C)oc1=O | > 100 µM | > 100 µM | – | – | > 100 µM | > 100 µM | – | > 100 µM | > 100 µM | > 100 µM | > 100 µM | – | – | – | – | – | – | – | – | – |
| COC(=O)C(/C(=N\O)C(=O)Nc1ccc(Br)cc1)c1nc2ccccc2[nH]c1=O (stereo unspecified) | > 100 µM | > 100 µM | 61.6 µM | 50 µM | > 100 µM | > 100 µM | 71.4 µM | > 100 µM | – | 68.2 µM | > 100 µM | – | – | – | – | – | – | – | – | – |
| Cc1c(Cl)cccc1NC(=O)C(=O)c1c(O)c2ccc(O)cc2oc1=O | > 100 µM | > 100 µM | – | > 100 µM | > 100 µM | > 100 µM | > 100 µM | > 100 µM | > 100 µM | > 100 µM | > 100 µM | – | – | – | – | – | – | – | – | – |
| CN(C)C(=S)/N=c1\ss/c(=N\S(=O)(=O)c2ccccc2)n1C | > 100 µM | > 100 µM | > 100 µM | – | > 100 µM | > 100 µM | > 100 µM | > 100 µM | > 100 µM | > 100 µM | > 100 µM | – | – | – | – | – | – | – | – | – |
| CCN1CCC(O)(/C=C/c2ccccc2)C(C(=O)/C=C/c2ccccc2)C1 (stereo unspecified) | 3.91 µM | 19.2 µM | – | 8.9 µM | 4.01 µM | 7.22 µM | 3.78 µM | 21.7 µM | 3.41 µM | 4.18 µM | 4.55 µM | – | – | – | – | – | – | – | – | – |
| C#C[C@@H](CCCC)OC(=O)N[C@H](C)c1ccccc1 | > 100 µM | 97.5 µM | 87.6 µM | > 100 µM | – | > 100 µM | 52.6 µM | 65.4 µM | > 100 µM | > 100 µM | > 100 µM | – | – | – | – | – | – | – | – | – |
| N#CC(C#N)C(c1ccccc1)c1ccccc1 | > 100 µM | – | > 100 µM | > 100 µM | > 100 µM | > 100 µM | > 100 µM | > 100 µM | > 100 µM | – | > 100 µM | – | – | – | – | – | – | – | – | – |
| COc1ccc(/C=C2/CSC/C(=C/c3ccc(OC)c(OC)c3)C2=O)cc1OC | 9.76 µM | > 100 µM | – | 5.15 µM | 6.28 µM | 6.53 µM | 5.99 µM | 10.6 µM | 3.63 µM | 6.63 µM | 16.9 µM | – | – | – | – | – | – | – | – | – |
| COc1cc([C@@H]2c3cc4c(cc3[C@@H](NCc3cccc(F)c3)C3COC(=O)[C@@H]32)OCO4)cc(OC)c1O (stereo partly specified) | 45.9 µM | 13.5 µM | 19.2 µM | 30.5 µM | 20.9 µM | 21.2 µM | 17.5 µM | 14.3 µM | 22.5 µM | – | 39.6 µM | – | – | – | – | – | – | – | – | – |
| N#CNC1=NCCC(=O)N1CCc1c[nH]c2ccccc12 | > 100 µM | > 100 µM | > 100 µM | > 100 µM | > 100 µM | – | > 100 µM | > 100 µM | > 100 µM | > 100 µM | > 100 µM | – | – | – | – | – | – | – | – | – |
| CC1OC(=O)N2CCC=CC12 (stereo unspecified) | > 100 µM | > 100 µM | > 100 µM | > 100 µM | – | > 100 µM | > 100 µM | > 100 µM | > 100 µM | > 100 µM | > 100 µM | – | – | – | – | – | – | – | – | – |
| COC(=O)C#CC(N)=O | 47.5 µM | > 100 µM | – | > 100 µM | > 100 µM | > 31.6 µM | > 100 µM | > 100 µM | > 54.8 µM | > 100 µM | > 70.7 µM | – | – | – | – | – | – | – | – | – |
| COc1ccc(F)cc1-c1ccnc2[nH]c(C3=CCN(C4CCC(CC(=O)O)CC4)CC3)cc12 (stereo unspecified) | 0.989 µM | 0.381 µM | 0.786 µM | > 100 µM | > 100 µM | – | > 100 µM | 0.625 µM | 18.3 µM | – | > 100 µM | 0.152 µM | 0.13 µM | 0.235 µM | 0.107 µM | 0.299 µM | 0.307 µM | 0.168 µM | 0.205 µM | 0.123 µM |
| CN(C)Cc1cc(C(C)(C)C)cc(CN(C)C)c1O | > 100 µM | > 100 µM | > 100 µM | > 100 µM | 52.2 µM | – | > 100 µM | 51.6 µM | > 100 µM | – | > 100 µM | – | – | – | – | – | – | – | – | – |
| Cc1c(C2CCSc3ccccc3N2)sc2ccccc12 (stereo unspecified) | > 100 µM | > 100 µM | > 100 µM | > 100 µM | > 100 µM | – | > 100 µM | > 100 µM | > 100 µM | – | > 100 µM | – | – | – | – | – | – | – | – | – |
| Cc1nc(-n2nc(-c3ccccc3)cc2-c2ccccc2)sc1C(=O)CC(=O)C(=O)Nc1ccc(O)cc1 | – | > 100 µM | > 100 µM | > 100 µM | > 100 µM | > 100 µM | > 100 µM | > 100 µM | > 100 µM | – | > 100 µM | – | – | – | – | – | – | – | – | – |
| Cc1ccc(C)c(NC(=O)C(=O)Nn2c(=S)[nH]c3ccccc3c2=O)c1 | > 100 µM | > 100 µM | > 100 µM | – | > 100 µM | > 100 µM | > 100 µM | > 100 µM | > 100 µM | – | > 100 µM | – | – | – | – | – | – | – | – | – |
